Measured values reported in PubChem BioAssay AID330 (DTP/NCI, 2004).
Several values for one entry are separate records, joined by “and”; a condition that tells them apart may be missing. Equal values may be shown once. Inconclusive results and toxic doses are left out. The calls were made as follows: active = survival T/C of 150% or more; inactive = T/C below 125% in these data. Peptide text beside a SMILES is read from it. * marks the point of attachment. Cbz = O=C(OCc1ccccc1)*

Tested on: P388 leukemia ip, CD2F1 mice, survival T/C
Assay: NCI In Vivo Anticancer Drug Screen. Data for tumor model P388 Leukemia (intraperitoneal) in CD2F1 (CDF1) mice
Conditions: endpoint: median survival time, higher = longer survival
How it was run: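 Mice carrying the transplanted tumor received test compound or vehicle. Survival was recorded in each group, and the value is the treated-group measurement divided by that of the vehicle-treated control group.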

[1] = dose: 400.0 mg/kg/injection, schedule: Q04DX003 (ip), vehicle: saline with Tween-80
[2] = dose: 50.0 mg/kg/injection, schedule: Q01DX005 (ip), vehicle: saline with Tween-80
[3] = dose: 100.0 mg/kg/injection, schedule: Q01DX005 (ip), vehicle: saline with Tween-80
[4] = dose: 200.0 mg/kg/injection, schedule: Q01DX005 (ip), vehicle: saline with Tween-80
[5] = dose: 60.0 mg/kg/injection, schedule: Q01DX005 (ip), vehicle: Klucel (hydroxypropylcellulose) (HPC)
[6] = dose: 120.0 mg/kg/injection, schedule: Q01DX005 (ip), vehicle: Klucel (hydroxypropylcellulose) (HPC)
[7] = dose: 240.0 mg/kg/injection, schedule: Q01DX005 (ip), vehicle: Klucel (hydroxypropylcellulose) (HPC)
[8] = dose: 100.0 mg/kg/injection, schedule: Q01DX009 (ip), vehicle: saline with Tween-80
[9] = dose: 200.0 mg/kg/injection, schedule: Q01DX009 (ip), vehicle: saline with Tween-80
[10] = dose: 400.0 mg/kg/injection, schedule: Q01DX009 (ip), vehicle: saline with Tween-80
[11] = dose: 60.0 mg/kg/injection, schedule: Q01DX005 (ip), vehicle: saline with Tween-80
[12] = dose: 120.0 mg/kg/injection, schedule: Q01DX005 (ip), vehicle: saline with Tween-80
[13] = dose: 240.0 mg/kg/injection, schedule: Q01DX005 (ip), vehicle: saline with Tween-80
[14] = dose: 50.0 mg/kg/injection, schedule: Q01DX009 (ip), vehicle: saline with Tween-80
[15] = dose: 50.0 mg/kg/injection, schedule: Q01DX009 (ip), vehicle: saline

Measured: T/C

COC(=O)C1CC(C)N1C1CCCCC1 (configuration not stated)
inactive: dose: 50.0 mg/kg/injection, schedule: Q01DX005 (ip), vehicle: saline 97 % of control | dose: 100.0 mg/kg/injection, schedule: Q01DX005 (ip), vehicle: saline 97 % of control | dose: 200.0 mg/kg/injection, schedule: Q01DX005 (ip), vehicle: saline 101 % of control

CCC(C(N)=O)C1=CCCCC1 (configuration not stated)
inactive: dose: 100.0 mg/kg/injection, schedule: Q04DX003 (ip), vehicle: saline with Tween-80 104 % of control | dose: 200.0 mg/kg/injection, schedule: Q04DX003 (ip), vehicle: saline with Tween-80 100 % of control | [1] 100 % of control

NC(=O)C(Cc1ccccc1)NC(=O)C(Cc1ccccc1)NC(=O)C(Cc1ccccc1)NC(=O)OCc1ccccc1 (stereo not drawn) (Cbz-Phe-Phe-Phe-NH2; configuration not given here)
inactive: [2] 91 % of control | [3] 97 % of control | [4] 102 % of control

CCOc1c(N=Nc2ccccc2OC)c(C)nn1C(=S)S
inactive: [5] 102 % of control | [6] 114 % of control | [7] 105 % of control

COc1cc(C2Oc3c(OC)cc(/C=C/C(=O)NCCc4ccc(O)cc4)cc3C2C(=O)NCCc2ccc(O)cc2)ccc1O (configuration not stated)
inactive: dose: 1.88 mg/kg/injection, schedule: Q01DX005 (ip), vehicle: Klucel (hydroxypropylcellulose) (HPC) 96 % of control | dose: 3.75 mg/kg/injection, schedule: Q01DX005 (ip), vehicle: Klucel (hydroxypropylcellulose) (HPC) 94 % of control | dose: 7.5 mg/kg/injection, schedule: Q01DX005 (ip), vehicle: Klucel (hydroxypropylcellulose) (HPC) 99 % of control | dose: 15.0 mg/kg/injection, schedule: Q01DX005 (ip), vehicle: Klucel (hydroxypropylcellulose) (HPC) 101 % of control

CCCC1OCC(CC)C(CCC)O1 (configuration not stated)
inactive: [8] 100 % of control | dose: 100.0 mg/kg/injection, schedule: Q04DX003 (ip), vehicle: saline sonified 100 % of control | [9] 100 % of control | dose: 200.0 mg/kg/injection, schedule: Q04DX003 (ip), vehicle: saline sonified 109 % of control | [10] 91 % of control | dose: 400.0 mg/kg/injection, schedule: Q04DX003 (ip), vehicle: saline sonified 109 % of control

Cn1c2ccccc2c(=O)c2cc(NC(=O)CCCC(=O)Nc3ccc4c(c3)c(=O)c3ccccc3n4C)ccc21
inactive: [2] 98 % of control | [3] 99 % of control | [4] 101 % of control

COC(=O)N1C=CC2ON=C(S(=O)(=O)c3ccccc3)C2C1 (configuration not stated)
inactive: [11] 108 % of control | [12] 95 % of control | [13] 98 % of control

O=C1Nc2ccccc2C1NC(=S)Nc1ccc(Cl)cc1 (configuration not stated)
inactive: dose: 100.0 mg/kg/injection, schedule: Q01DX001 (ip), vehicle: saline with Tween-80 87 % of control | dose: 200.0 mg/kg/injection, schedule: Q01DX001 (ip), vehicle: saline with Tween-80 86 % of control

Cc1ccc2nc(Nc3nc(C)cc(C)n3)[nH]c2c1
inactive: [5] 103 % of control | [6] 100 % of control | [7] 97 % of control

O=c1ccn(C2CCCCC2)c(=O)[nH]1
inactive: dose: 6.25 mg/kg/injection, schedule: Q01DX005 (ip), vehicle: Klucel (hydroxypropylcellulose) (HPC) 99 % of control | dose: 12.5 mg/kg/injection, schedule: Q01DX005 (ip), vehicle: Klucel (hydroxypropylcellulose) (HPC) 95 % of control | dose: 25.0 mg/kg/injection, schedule: Q01DX005 (ip), vehicle: Klucel (hydroxypropylcellulose) (HPC) 91 % of control

Cc1csc(=S)n1O
inactive: dose: 60.0 mg/kg/injection, schedule: Q01DX005 (ip), vehicle: saline 101 % of control | dose: 120.0 mg/kg/injection, schedule: Q01DX005 (ip), vehicle: saline 100 % of control | dose: 240.0 mg/kg/injection, schedule: Q01DX005 (ip), vehicle: saline 101 % of control

COc1ccc(C(=O)CC2(O)C(=O)Nc3ccccc32)cc1O (configuration not stated)
inactive: [11] 105 % of control | [12] 102 % of control | [13] 102 % of control

COc1c(NC=O)c2c(c([N+](=O)[O-])c1OC)C(=O)OC2
inactive: dose: 50.0 mg/kg/injection, schedule: Q01DX005 (ip), vehicle: Klucel (hydroxypropylcellulose) (HPC) 102 % of control | dose: 100.0 mg/kg/injection, schedule: Q01DX005 (ip), vehicle: Klucel (hydroxypropylcellulose) (HPC) 99 % of control | dose: 200.0 mg/kg/injection, schedule: Q01DX005 (ip), vehicle: Klucel (hydroxypropylcellulose) (HPC) 98 % of control

N#Cc1nn(C(N)=O)c(N)c1C#N
inactive: [5] 104 % of control | [6] 105 % of control | [7] 103 % of control

CN1C(=O)C23CCCCN2CC12CC1(C(=O)Nc4c1ccc1c4OC=CC(C)(C)O1)C(C)(C)C2C3 (configuration not stated)
inactive: dose: 0.37 mg/kg/injection, schedule: Q01DX009 (ip), vehicle: Klucel (hydroxypropylcellulose) (HPC) 100 % of control | dose: 0.75 mg/kg/injection, schedule: Q01DX009 (ip), vehicle: Klucel (hydroxypropylcellulose) (HPC) 102 % of control | dose: 1.5 mg/kg/injection, schedule: Q01DX009 (ip), vehicle: Klucel (hydroxypropylcellulose) (HPC) 100 % of control | dose: 3.0 mg/kg/injection, schedule: Q01DX009 (ip), vehicle: Klucel (hydroxypropylcellulose) (HPC) 100 % of control | dose: 4.5 mg/kg/injection, schedule: Q01DX009 (ip), vehicle: Klucel (hydroxypropylcellulose) (HPC) 96 % of control | dose: 9.0 mg/kg/injection, schedule: Q01DX009 (ip), vehicle: Klucel (hydroxypropylcellulose) (HPC) 98 % of control | dose: 18.0 mg/kg/injection, schedule: Q01DX009 (ip), vehicle: Klucel (hydroxypropylcellulose) (HPC) 100 % of control

ClC(Cl)(Cl)c1cccc(C(Cl)(Cl)Cl)c1
inactive: dose: 132.0 mg/kg/injection, schedule: Q04DX003 (ip), vehicle: Klucel (hydroxypropylcellulose) (HPC) 113 % of control | dose: 200.0 mg/kg/injection, schedule: Q04DX003 (ip), vehicle: Klucel (hydroxypropylcellulose) (HPC) 100 % of control | dose: 264.0 mg/kg/injection, schedule: Q04DX003 (ip), vehicle: saline with Tween-80 95 % of control | dose: 300.0 mg/kg/injection, schedule: Q04DX003 (ip), vehicle: Klucel (hydroxypropylcellulose) (HPC) 113 % of control | [1] 91 % of control | dose: 600.0 mg/kg/injection, schedule: Q04DX003 (ip), vehicle: saline with Tween-80 108 % of control

Cc1ccc(S(=O)(=O)/N=[Se](\C)c2ccccc2)cc1 (configuration not stated)
inactive: dose: 0.79 mg/kg/injection, schedule: Q01DX009 (ip), vehicle: saline 95 % of control | dose: 1.56 mg/kg/injection, schedule: Q01DX009 (ip), vehicle: saline 97 % of control | dose: 3.12 mg/kg/injection, schedule: Q01DX009 (ip), vehicle: saline 93 % of control and 97 % of control | dose: 12.5 mg/kg/injection, schedule: Q01DX009 (ip), vehicle: saline with Tween-80 96 % of control | dose: 25.0 mg/kg/injection, schedule: Q01DX009 (ip), vehicle: saline with Tween-80 96 % of control | [14] 108 % of control | [15] 114 % of control

[Cl][Pt]([Cl])([Cl])[Cl].c1ccc2[nH]cnc2c1.c1ccc2[nH]cnc2c1
inactive: dose: 1.56 mg/kg/injection, schedule: Q01DX005 (ip), vehicle: saline with Tween-80 87 % of control | dose: 3.12 mg/kg/injection, schedule: Q01DX005 (ip), vehicle: saline with Tween-80 97 % of control | dose: 6.25 mg/kg/injection, schedule: Q01DX005 (ip), vehicle: saline with Tween-80 94 % of control | [2] 99 % of control and 96 % of control

CC(C)COCCCN
inactive: dose: 12.5 mg/kg/injection, schedule: Q01DX009 (ip), vehicle: saline 100 % of control | dose: 12.5 mg/kg/injection, schedule: Q04DX003 (ip), vehicle: saline 91 % of control | dose: 25.0 mg/kg/injection, schedule: Q01DX009 (ip), vehicle: saline 100 % of control | dose: 25.0 mg/kg/injection, schedule: Q04DX003 (ip), vehicle: saline 100 % of control | [15] 100 % of control | dose: 50.0 mg/kg/injection, schedule: Q04DX003 (ip), vehicle: saline 91 % of control

O=Nc1[nH]c(NO)c2ccccc12
inactive: [14] 91 % of control | [8] 87 % of control | [9] 87 % of control | [10] 90 % of control
